The values below come from PMC9814779, “A triple farnesoid X receptor and peroxisome proliferator-activated receptor α/δ activator reverses hepatic fibrosis in diet-induced NASH in mice” (Communications Chemistry, 2020).

The structures appear in SMILES notation.

In data set [1] the target is T1, human PPARγ ligand-binding domain (Gal4 chimera) (Homo sapiens, UniProt P37231).
T1 construct: coding for the hinge region and LBD of the canonical isoform of the respective nuclear receptor; expressed in transfected cells; host or cells: HEK293T
T1 sequence (P37231 238-503 limits assumed): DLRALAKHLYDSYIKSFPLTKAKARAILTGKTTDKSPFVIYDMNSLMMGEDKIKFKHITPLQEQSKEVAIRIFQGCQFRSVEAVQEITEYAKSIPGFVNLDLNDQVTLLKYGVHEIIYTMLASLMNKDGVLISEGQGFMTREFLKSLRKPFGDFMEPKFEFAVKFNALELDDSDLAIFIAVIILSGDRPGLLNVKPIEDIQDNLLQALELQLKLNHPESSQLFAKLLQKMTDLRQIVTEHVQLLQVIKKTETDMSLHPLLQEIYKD
Briefly: Gal4 hybrid reporter gene assay, PPARγ. The format is cell-based. On the set-up: Emax: dose or concentration left out as unconfirmed.

The target in data set [2] is T2, human PPARδ ligand-binding domain (Gal4 chimera) (Homo sapiens, UniProt Q03181).
T2 construct: coding for the hinge region and LBD of the canonical isoform of the respective nuclear receptor; expressed in transfected cells; host or cells: HEK293T
T2 sequence (Q03181 211-439 limits assumed): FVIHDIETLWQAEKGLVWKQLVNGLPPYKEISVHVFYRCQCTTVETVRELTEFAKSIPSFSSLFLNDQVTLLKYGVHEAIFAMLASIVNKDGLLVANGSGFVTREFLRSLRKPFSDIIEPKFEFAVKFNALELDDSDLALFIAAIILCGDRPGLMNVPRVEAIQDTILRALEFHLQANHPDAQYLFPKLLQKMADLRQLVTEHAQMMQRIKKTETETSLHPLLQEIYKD
Nature of the data set: Gal4 hybrid reporter gene assay, PPARδ. Details: Emax: dose or concentration left out as unconfirmed. The format is cell-based.

Data set [3] has as its system nuclear receptors related to PPARs and FXR (LXRα/β, RXRα/β/γ, RARα/β/γ, VDR, CAR). The conditions noted are these: previous studies; cited from earlier work.
Data set [4] has as its target T3, human PPARα ligand-binding domain (Gal4 chimera) (Homo sapiens, UniProt Q07869).
T3 construct: coding for the hinge region and LBD of the canonical isoform of the respective nuclear receptor; expressed in transfected cells; host or cells: HEK293T
T3 sequence (Q07869 239-466 limits assumed): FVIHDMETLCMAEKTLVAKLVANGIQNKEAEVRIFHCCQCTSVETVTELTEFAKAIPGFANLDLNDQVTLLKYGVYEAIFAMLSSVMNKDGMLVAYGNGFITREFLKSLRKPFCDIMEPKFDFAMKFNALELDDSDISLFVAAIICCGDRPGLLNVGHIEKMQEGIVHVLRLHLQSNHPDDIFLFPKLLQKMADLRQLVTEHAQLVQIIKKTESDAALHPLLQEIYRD
Nature of the data set: Gal4 hybrid reporter gene assay, PPARα. Format: cell-based. On the set-up: Emax: dose or concentration left out as unconfirmed.

Data set [5] concerns the target T4, human FXR:retinoid X receptor (RXR) heterodimer (Homo sapiens, UniProt Q96RI1).
T4 construct: pcDNA3-hFXR[32] and pSG5-hRXR[33] served for receptor overexpression in the full-length FXR assay; expressed in transfected cells; host or cells: HeLa
Nature of the data set: Full-length FXR reporter gene assay (BSEP response element) in HeLa cells. The format is cell-based. Details: Emax: dose or concentration left out as unconfirmed. The settings on record: HeLa.

Data set [6] concerns diet-induced mouse model of NASH. The settings on record: cited from earlier work.
For data set [7], the system named is FXR- and PPAR-regulated gene expression in HepG2 cells. Nature of the data set: FXR- and PPAR-regulated gene expression in HepG2 cells (qRT-PCR). The settings on record: HepG2, 1 µM, 12 h, vs. vehicle-treated cells. The format is cell-based, human. As to the method: HepG2 cells (DSMZ) were grown in DMEM high glucose, supplemented with 10% FCS, 1 mM SP, penicillin (100 U/mL), and streptomycin (100 μg/mL) at 37 °C and 5% CO2 and seeded in 6-well plates (2 × 10^6 per well). After 24 h, medium was changed to Minimal Essential Medium supplemented with 1% charcoal-stripped FCS, penicillin (100 U/mL), streptomycin (100 μg/mL), and 2 mM L-glutamine. After an additional 24 h, cells were incubated with test compound 41 (0.1 µM, 0.3 µM, 1 μM), OCA (1 μM), or elafibranor (1 µM) dissolved in the same medium with 0.1% DMSO or medium with 0.1% DMSO alone as untreated control for 12 h, harvested, washed with cold phosphate-buffered saline (PBS), and then directly used for RNA extraction. C2C12 cells (American Type Culture Collection, ATCC) were grown in DMEM high glucose, supplemented with 10% FCS, 1 mM SP, penicillin (100 U/mL), and streptomycin (100 μg/mL) at 37 °C and 5% CO2 and seeded in 6-well plates (1 × 10^6 per well). Upon reaching confluence, medium was changed to Eagle’s Minimal Essential Medium supplemented with 2% horse serum, penicillin (100 U/mL), streptomycin (100 μg/mL), and 2 mM L-glutamine. Cells were then differentiated in this medium for 5 days before incubation with test compounds 41 (1 μM) or L165,041 (1 μM) dissolved in the same medium with 0.1% DMSO or medium with 0.1% DMSO alone as untreated control for 8 h. Cells were harvested, washed with cold PBS, and then directly used for RNA extraction. Total RNA was extracted from HepG2 cells or C2C12 cells using the total RNA Mini Kit (R6834-02, Omega Bio-Tek, Inc., Norcross, GA, USA). Two micrograms of extracted RNA were then reverse-transcribed into cDNA with the High-Capacity cDNA Reverse Transcription Kit (4368814, Thermo Fischer Scientific, Inc.). FXR- and PPAR-regulated gene expression was then studied by quantitative real-time PCR (qRT-PCR) analysis with a StepOnePlus System (Life Technologies, Carlsbad, CA, USA) using PowerSYBRGreen (Life Technologies; 12.5 μL per well). Each sample was set up in duplicates and repeated in four independent experiments. Data were analyzed by the comparative ΔΔCT method with glyceraldehyde 3-phosphate dehydrogenase (GAPDH) as reference gene. The following primers were used for HepG2 cells (human genes): hGAPDH: 5 ′-ATATGATTCCACCCATGGCA (fw), 5′-GATGATGACCCTTTTGGCTC (rev); hSHP: 5′-GCTGTCTGGAGTCCTTCTGG (fw), 5′-CCAATGATAGGGCGAAAGAAGAG (rev); hCYP7A1: 5′-CACCTTGAGGACGGTTCCTA (fw), 5′-CGATCCAAAGGGCATGTAGT (rev); hBSEP: 5′-CATGGTGCAAGAAGTGCTGAGT (fw), 5′-AAGCGATGAGCAACTGAAATGAT (rev); hACOX: 5′-ACT CGC AGC CAG CGT TAT G (fw), 5′-AGG GTC AGC GAT GCC AAA C (rev); hPDK4: 5′-AGAGCCTGATGGATTTGGTG (fw), 5′-GCTTGGGTTTCCTGTCTGTG (rev); hCPT1: 5′-ACAGTCGGTGAGGCCTCTTAT (fw), 5′-TCTTGCTGCCTGAATGTGAGT (rev); hFGF21: 5′-ATGGATCGCTCCACTTTGACC (fw), 5′-GGGCTTCGGACTGGTAAACAT (rev). The following primers were used for C2C12 cells (murine genes)[36]: mGAPDH: 5′-CGACTTCAACAGCAACTCCCACTCTTCC (fw), 5′-TGGGTGGTCCAGGGTTTCTTACTCCTT (rev); mPCK: 5′-TGTTTACTGGGAAGGCATCG (fw), 5′-CAGAATCTCGAGTTGGGATGG (rev); mGLUT3: 5′-CGTCCTTGAAGATTCCTGTTGA (fw), 5′-GTC ACC CAA CTA CGT CCA G (rev); mLPL: 5′-GTCAGGTTCTCTCTTGTACAGG (fw), 5′-TCTAACTGCCACTTCAACCAC (rev).

The subject of the next data set is HEK293T and U2OS cells. Nature of the data set: Multiplex high-content live-cell toxicity assay. The settings on record: seven concentrations between 100 nM and 100 µM; 2, 12 and 24 h. Format: cell-based. As to the method: Before proof-of-concept in vivo evaluation, we profiled stability and cytotoxicity of the triple modulator 41 in vitro. […] To determine cytotoxicity, we employed a multiplex high-content life-cell imaging screen[24] on HEK293T and U2OS cells. For this, the cells were treated with fluorescent probes to detect Annexin V as apoptosis marker (Annexin V Alexa488), dead cells (Yo-Pro3), and DNA/nucleus (Hoechst33342). Cells were then incubated with 41, OCA, or elafibranor at seven concentrations between 100 nM and 100 µM, and cell health was determined by fluorescence imaging after 2, 12, and 24 h (Fig. 6g–i and Supplementary Fig. 5).
Supplementary Methods for in Vitro Characterization
Cytotoxicity was assessed in a high content screen on two different cell lines, HEK293T (ATCC® CRL-1573™) and U2OS (ATCC®HTB-96™), essentially as described previously6. In brief, cells were cultured in DMEM plus L-Glutamine (high glucose) supplemented with 10 % FBS (Gibco) and Penicillin/Streptomycin (Gibco). […]
After 2 h, 12 h and 24 h, cellular shape and fluorescence was analyzed on an automated, high-content confocal microscope (CQ1, Yokogawa). […]
50 ms, 40%; bright field, 300ms, 100% transmission, one centered field per well, 7 z stacks per well with 55 µm spacing. Images were analyzed with the Pathfinder software (Yokogawa). Cells were detected and gated as previously described6. […]
The solubilized test compound (5 μL, final concentration 10 μM in phosphate buffer (0.1 M, pH 7.4)) was preincubated at 37 °C in 432 μL of phosphate buffer (0.1 M, pH 7.4) together with a 50 μL NADPH regenerating system (30 mM glucose-6-phosphate, 4 U/mL glucose-6-phosphate dehydrogenase, 10 mM NADP, 30 mM MgCl2). […] The supernatants were analyzed and test compound was quantified by HPLC: mobile phase: MeOH 83%/H2O 17%/formic acid 0.1%; flow-rate: 1 mL/min; stationary phase: MultoHigh Phenyl phase, 5 μm, 250×4, precolumn, phenyl, 5 μm, 20×4; detection wavelength: 330 and 254 nm; injection volume: 50 μL. […]

For another data set, the system named is STAM NASH. The settings on record: cited from earlier work.
The test system of data set [8] is choline-deficient, L-amino acid-defined, high-fat diet-induced NASH in mice. On the set-up: method as in PMID 29164820. The conditions noted are these: cited from earlier work.
Data set [9] deals with (foz/foz) mice under atherogenic diet. The conditions noted are these: without a pronounced effect on hepatic inflammation; cited from earlier work.

T4 sequence (P19793 whole entry): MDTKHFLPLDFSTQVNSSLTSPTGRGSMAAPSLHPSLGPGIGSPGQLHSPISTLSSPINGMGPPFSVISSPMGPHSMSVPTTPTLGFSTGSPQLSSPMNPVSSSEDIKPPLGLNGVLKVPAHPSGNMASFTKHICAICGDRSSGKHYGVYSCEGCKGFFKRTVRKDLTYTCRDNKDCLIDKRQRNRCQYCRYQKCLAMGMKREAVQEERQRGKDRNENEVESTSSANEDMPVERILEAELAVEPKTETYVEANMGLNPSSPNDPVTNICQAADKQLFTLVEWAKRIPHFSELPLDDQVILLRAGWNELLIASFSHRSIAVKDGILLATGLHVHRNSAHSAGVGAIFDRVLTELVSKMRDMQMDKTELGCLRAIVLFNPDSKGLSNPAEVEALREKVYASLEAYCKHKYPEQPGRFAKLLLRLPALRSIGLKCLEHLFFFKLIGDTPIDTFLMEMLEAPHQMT
T4 sequence (Q96RI1 whole entry): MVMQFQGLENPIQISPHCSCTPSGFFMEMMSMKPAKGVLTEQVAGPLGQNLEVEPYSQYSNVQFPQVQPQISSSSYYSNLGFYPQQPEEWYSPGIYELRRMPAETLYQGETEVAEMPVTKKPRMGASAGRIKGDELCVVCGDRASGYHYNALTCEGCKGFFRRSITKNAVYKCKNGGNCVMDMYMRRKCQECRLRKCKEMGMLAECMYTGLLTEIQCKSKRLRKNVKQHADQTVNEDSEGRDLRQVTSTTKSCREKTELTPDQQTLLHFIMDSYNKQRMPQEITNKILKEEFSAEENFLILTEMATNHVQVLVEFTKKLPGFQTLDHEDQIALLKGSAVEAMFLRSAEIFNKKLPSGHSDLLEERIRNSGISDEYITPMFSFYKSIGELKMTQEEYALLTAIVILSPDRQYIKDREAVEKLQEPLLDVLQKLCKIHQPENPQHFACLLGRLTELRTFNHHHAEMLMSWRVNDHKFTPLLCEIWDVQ

On to `O=C(O)Cc1cccc(NC(=O)c2ccccc2NC(=O)c2ccc3ccccc3c2)c1` [compound 5], for which the half-maximal effective concentration (EC50) is 16 ± 1 µM in data set [1]; 4.9 ± 0.9 µM in data set [2] (EC50 [μM] PPARδ, HEK293T, mean ± SEM, n = 3); 5 ± 1 µM in data set [4] (EC50 [μM] PPARα, HEK293T, mean ± SEM, n = 3); 2.5 ± 0.2 µM in data set [5] (mean ± SEM, n = 3, read-out: EC50 [μM] FXR). Moreover, the Emax in data set [1] (read-out: max. rel. act. PPARγ) was 14%; in [2] (read-out: max. rel. act. PPARδ), 34%; in data set [4] (read-out: max. rel. act. PPARα), 37%; in data set [5] (read-out: max. rel. act. FXR), 21%. In [3], the “selectivity over related nuclear receptors” value was “selective over related nuclear receptors”.
On to `CSc1ccc(C(=O)/C=C/c2cc(C)c(OC(C)(C)C(=O)O)c(C)c2)cc1` [elafibranor], for which the anti-steatotic effect result in data set [6] (OCA 30 mg/kg, OCA/elafibranor 30 mg/kg + 10 mg/kg, elafibranor 10 mg/kg) was “less pronounced”. Also, the anti-fibrotic activity result in data set [6] (equivalent, previously reported study) is “only weak anti-fibrotic activity compared to vehicle”. Besides, in [7], the “mRNA expression of FXR-regulated genes (BSEP, SHP, CYP7A1)” value is given as “no effect on FXR activity” and the “mRNA expression of PPAR-regulated genes (ACOX, PDK4, CPT1, FGF21)” value is “strongly promoted the expression of PPAR-regulated genes”. In addition, the “cytotoxicity (cell health, apoptosis, necrosis, lysis)” value in the data set with HEK293T and U2OS cells is given as “non-toxic up to 100 µM concentration over 24 h”.
With `CC[C@@H](Oc1cccc(CN(CCCOc2ccc(OC)cc2)c2nc3ccccc3o2)c1)C(=O)O` [pemafibrate], in the data set with STAM NASH, the “effects in STAM NASH” value was “counter hepatocyte ballooning in STAM NASH without affecting hepatic steatosis and inflammation”.
Regarding `CCO[C@@H](Cc1ccc(OCCn2c(C)ccc2-c2ccc(SC)cc2)cc1)C(=O)O` [saroglitazar], the anti-steatosis efficacy entry in data set [8] is “stronger anti-steatosis efficacy than the selective agents fenofibrate (PPARα) and pioglitazone (PPARγ)”.
With `CCO[C@H](COc1ccc(C(F)(F)F)cc1)CSc1ccc(OCC(=O)O)c(C)c1` [seladelpar], the “effects in (foz/foz) mice under atherogenic diet” value in data set [9] was “improved steatosis and hepatocyte ballooning”.
